Experimental findings from patent US5888978A, “Method for reducing the severity of gastro-intestinal damage” (Trega Biosciences, Inc., priority 1995, dated 1999) are described below.

The test deals with indomethacin treated rats. Kind of test: indomethacin-induced GI damage in rats (diarrhea and survival). The test is classed as in vivo, Harlan Sprague-Dawley rats. The following applies: Ind-CRA-1 group. On the procedure:
As disclosed herein, administration of a CRA reduced the severity of GI damage in indomethacin treated rats. The effect of indomethacin administration on GI damage to rats is a well recognized model for studying the efficacy of agents that can affect GI damage (see, for example, Perkins et al., J. Pharmacol. Expt. Ther. 269:151-156 (1994)). In the model system used in the experiments described in Example I, the appearance of diarrhea and animal survival were determined following administration of indomethacin, alone, or with concurrent treatment using a cytokine regulatory agent.
The CRA, Ac-Nle-Gln-His-(D)Phe-Arg-(D)Trp-Gly-NH2 (CRA-1), was prepared as described (U.S. Pat. No. 5,420,109, supra, 1995). Adult male Harlan Sprague-Dawley rats (325-425 g) were divided into four groups (6 rats/group). Rats were weighed every morning and food was removed prior to receiving any treatment. Two groups of rats were pretreated by intraperitoneal (ip) injection of sterile saline, alone ("control"), and the remaining two groups were pretreated by ip injection of CRA-1 (100 μg/kg in saline). Pretreatment injections were administered between 8:00-9:00 am.
One hr following the pretreatment, one group of control rats was injected ip, on the side opposite the initial injection, with saline (Sal-control) and the other control group was injected with indomethacin (Ind-control; 10 mg/kg in saline, adjusted to pH 7.5-8.5 with NaOH). Similarly, the two groups of CRA-1 treated rats received either saline (Sal-CRA-1) or indomethacin (Ind-CRA-1). At 8 hr and 16 hr after the pretreatment, control rats and CRA-1 rats were administered saline or CRA-1, respectively. Food was returned to the rats after the 8 hr injection. This protocol was repeated for 7 days.

SMILES strings stand for the structures.

As to `CCCC[C@H](NC(C)=O)C(=O)N[C@@H](CCC(N)=O)C(=O)N[C@@H](Cc1c[nH]cn1)C(=O)N[C@H](Cc1ccccc1)C(=O)N[C@@H](CCCNC(=N)N)C(=O)N[C@H](Cc1c[nH]c2ccccc12)C(=O)NCC(N)=O` [CRA-1, Ac-Nle-Gln-His-(D)Phe-Arg-(D)Trp-Gly-NH2], the “surviving rats with diarrhea by day 7” value (2 of the surviving 5 rats, CRA-1 100 μg/kg ip plus indomethacin 10 mg/kg ip, all 3 surviving Ind-saline rats had diarrhea) came to 40%. Besides, the “surviving rats with diarrhea by day 8” value (3/5, CRA-1 100 μg/kg ip plus indomethacin 10 mg/kg ip) is on record as 60%. Under “5/6, CRA-1 100 μg/kg ip plus indomethacin 10 mg/kg ip, Ind-saline control 66.7% lethality”, the “survival by day 8” value is reported as 83.3%. Also, the “rats with diarrhea at day 4” value (6 rats, CRA-1 100 μg/kg ip (pretreatment, 8 hr and 16 hr) plus indomethacin 10 mg/kg ip daily, Ind-saline control 5 of 6 (83.3%)) is “none”. In addition, under “CRA-1 100 μg/kg ip plus indomethacin 10 mg/kg ip daily for 7 days, Ind-saline control 3 of 6 died”, the “rats that had died by day 7” value is 1 of the 6.
